In patent US20130143929A1, “FUNGICIDAL IMIDAZOLES” (EI DU PONT DE NEMOURS AND COMPANY, priority 2010, published 2013):
Marks after values point to notes of the source that are not given here.

Assays:
Assay type in all cases: in vivo
[1] = tested on: Puccinia recondite f. sp. tritici (the causal agent of wheat leaf rust); assay: Test A: wheat leaf rust, preventive spray on wheat seedlings, visual disease rating; conditions: wheat leaf rust, preventive spray on wheat seedlings
How it was run: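 This was a preventive test: Puccinia recondite f. sp. tritici inoculum was applied one day after compound spray to run-off. Test suspensions were made in 50/50 acetone/water with 250 ppm surfactant, at 200 ppm (800 g/ha equivalent) or 40 ppm. Visual ratings of % disease control relative to controls were made after 24 h of saturated humidity and 7 growth-chamber days, all at 20° C.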

[2] = tested on: Septoria tritici (the causal agent of wheat leaf blotch); assay: Test B: wheat leaf blotch, preventive spray on wheat seedlings, visual disease rating; conditions: wheat leaf blotch, preventive spray on wheat seedlings
How it was run: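 Preventive test: Septoria tritici spores applied one day after run-off spraying of seedlings (200 ppm equals 800 g/ha; some tests 40 ppm). After 48 h at 24 °C saturated atmosphere and 19 days at 20 °C, disease scored visually as % control relative to untreated plants.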

[3] = tested on: Botrytis cinerea (the causal agent of tomato Botrytis); assay: Test C: tomato Botrytis, preventive spray on tomato seedlings, visual disease rating; conditions: tomato Botrytis, preventive spray on tomato seedlings
How it was run: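 Preventive test: B. cinerea spore inoculation one day after tomato seedlings were sprayed to run-off with compound suspended in 50/50 acetone–water plus 250 ppm surfactant. Plants held 48 h at 20° C in saturated air, then 3 days at 24° C; visual ratings scored 100 (full control) to 0 versus controls; some entries used 40 ppm.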

[4] = tested on: Blumeria graminis f. sp. tritici (also known as Erysiphe graminis f. sp. tritici, the causal agent of wheat powdery mildew); assay: Test D: wheat powdery mildew, preventive spray on wheat seedlings, visual disease rating; conditions: wheat powdery mildew, preventive spray on wheat seedlings
How it was run: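 Preventive test: seedlings sprayed to run-off and inoculated with powdery mildew spores one day later. Suspensions were made in 50/50 acetone/water with 250 ppm Trem 014 surfactant (200 ppm equals 800 g/ha). Visual ratings after 8 days at 20 °C give percent disease control versus controls.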

[5] = no asterisk (standard test suspension concentration, not 40 ppm)
[6] = asterisk: 40 ppm test suspension

Structure (SMILES)	Test A rating (100 = 100% disease control, 0 = no disease control relative to the controls) [1, 5]	Test B rating (100 = 100% disease control, 0 = no disease control relative to the controls) [2, 5]	Test C rating (100 = 100% disease control, 0 = no disease control relative to the controls) [3, 5]	Test D rating (100 = 100% disease control, 0 = no disease control relative to the controls) [4, 5]	Test A rating (100 = 100% disease control, 0 = no disease control relative to the controls) [1, 6]	Test B rating (100 = 100% disease control, 0 = no disease control relative to the controls) [2, 6]	Test C rating (100 = 100% disease control, 0 = no disease control relative to the controls) [3, 6]	Test D rating (100 = 100% disease control, 0 = no disease control relative to the controls) [4, 6]
OC(c1ccc(Cl)cc1)c1c(Cl)nc(Cl)n1-c1ccc(Cl)cc1Cl (single isomer, unassigned) [compound 86]	96%	100%	73%	56%	–	–	–	–
OC(c1ccc(Cl)cc1)c1c(Cl)nc(Cl)n1-c1ccc(Cl)cc1Cl (single isomer, unassigned) [compound 87]	91%	100%	60%	48%	–	–	–	–
OC(c1ccc(F)cc1Cl)c1c(Cl)ncn1-c1c(F)cccc1F (stereo not drawn) [Compound 1, 4-chloro-α-(2-chloro-4-fluorophenyl)-1-(2,6-difluorophenyl)-1H-imidazole-5-methanol]	100%	100%	99%	99%	–	–	–	–
OC(c1ccc(F)cc1F)c1c(Cl)ncn1-c1ccc(F)cc1Cl (stereo not drawn) [Compound 2, 4-chloro-1-(2-chloro-4-fluorophenyl)-α-(2,4-difluorophenyl)-1H-imidazole-5-methanol]	100%	100%	100%	81%	–	–	–	–
Cc1ncc(C(O)c2ccc(F)cc2Cl)n1-c1c(F)cc(F)cc1F (stereo not drawn) [Compound 167, α-(2-chloro-4-fluorophenyl)-2-methyl-1-(2,4,6-trifluorophenyl)-1H-imidazole-5-methanol]	100%	100%	33%	0%	–	–	–	–
Cc1nc(Br)c(C(O)c2ccc(F)cc2Cl)n1-c1c(F)cc(F)cc1F (stereo not drawn) [Compound 168, 4-bromo-α-(2-chloro-4-fluorophenyl)-2-methyl-1-(2,4,6-trifluorophenyl)-1H-imidazole-5-methanol]	–	–	–	–	100* %	100* %	99* %	56* %
COc1ccc(C(O)c2c(Br)ncn2-c2c(F)cccc2F)c(Cl)c1 (stereo not drawn) [Compound 274, 4-bromo-1-(2,6-difluorophenyl)-α-(2-chloro-4-methoxyphenyl)-1H-imidazole-5-methanol]	100%	97%	0%	64%	–	–	–	–
COc1ccc(C(O)c2c(Br)nc(Cl)n2-c2c(F)cccc2F)c(Cl)c1 (stereo not drawn) [Compound 287, 4-bromo-2-chloro-α-(2-chloro-4-methoxyphenyl)-1-(2,6-difluorophenyl)-1H-imidazole-5-methanol]	–	–	–	–	100* %	100* %	100* %	97* %
OC(c1ccc(F)cc1Cl)c1c(Cl)nc(Cl)n1-c1c(F)cc(F)cc1Cl (stereo not shown) [compound 42]	100%	100%	100%	100%	–	–	–	–
Cc1cc(F)ccc1C(O)c1c(Cl)nc(Cl)n1-c1c(F)cccc1F (stereo not shown) [compound 43]	100%	100%	100%	100%	–	–	–	–
OC(c1ccc(Cl)cc1)c1c(Cl)nc(Cl)n1-c1c(F)cc(F)cc1Br (stereo not shown) [compound 44]	99%	100%	99%	88%	–	–	–	–
Cc1nc(Cl)n(-c2ccc(F)cc2Cl)c1C(O)c1c(F)cccc1F (stereo not shown) [compound 46]	100%	100%	100%	100%	–	–	–	–
OC(c1c(F)cc(F)cc1F)c1c(Cl)nc(Cl)n1-c1ccc(F)cc1Cl (stereo not shown) [compound 49]	100%	100%	100%	100%	–	–	–	–
Cc1ccc(C(O)c2c(Br)nc(C)n2-c2c(F)cccc2F)c(F)c1 (stereo not shown) [compound 52]	–	–	–	–	99* %	100* %	37* %	35-* %
COc1ccc(C(O)c2c(Br)nc(C)n2-c2c(F)cccc2F)c(F)c1 (stereo not shown) [compound 53]	–	–	–	–	100* %	100* %	99* %	43* %
Cc1nc(Cl)c(C(O)c2ccc(Cl)cc2F)n1-c1c(F)cccc1F (stereo not shown) [compound 54]	–	–	–	–	98* %	100* %	80* %	69* %
Cc1ccc(C(O)c2c(Cl)nc(C)n2-c2c(F)cccc2F)c(F)c1 (stereo not shown) [compound 55]	–	–	–	–	100* %	100* %	98* %	98* %
COc1ccc(C(O)c2c(Cl)nc(C)n2-c2c(F)cccc2F)c(F)c1 (stereo not shown) [compound 56]	–	–	–	–	100* %	100* %	100* %	13* %
Cc1ncc(C(O)c2ccc(Cl)cc2)n1-c1ccc(F)cc1Cl (stereo not shown) [compound 57]	96%	100%	34%	0%	–	–	–	–
